ChEMBL document CHEMBL1201862, “PubChem BioAssay data set” (2004)
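Grown in 96-well plates, cells were treated for 48 hours with each compound at five concentrations. Insufficient inhibition: endpoint recorded as highest concentration tested. Here, GI50 denotes the concentration required for 50% inhibition of growth.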 Active and inactive are the calls of the source. Cut-off read from the data, not from the text of the source: active = GI50 up to about 1.1 µM and inactive = higher.

How the values were obtained:
Assay in all cases: DTP human tumour cell line panel, 48 h
[1] = test system: DU-145
[2] = test system: UO-31
[3] = test system: UACC-62
[4] = test system: MDA-MB-435
[5] = test system: HL-60
[6] = test system: TK-10
[7] = test system: K562
[8] = test system: SK-MEL-28
[9] = test system: NCI/ADR-RES
[10] = test system: HCC 2998
[11] = test system: A549
[12] = test system: IGROV-1
[13] = test system: U-251
[14] = test system: CAKI-1
[15] = test system: Hs-578T
[16] = test system: OVCAR-3
[17] = test system: A498
[18] = test system: MDA-MB-231
[19] = test system: SW-620
[20] = test system: HCT-116
[21] = test system: COLO 205
[22] = test system: HT-29
[23] = test system: SNB-75
[24] = test system: SK-OV-3
[25] = test system: OVCAR-5
[26] = test system: SF-268
[27] = test system: KM12
[28] = test system: OVCAR-4
[29] = test system: BT-549
[30] = test system: RXF 393
[31] = test system: PC-3
[32] = test system: MCF7
[33] = test system: OVCAR-8
[34] = test system: SN12C
[35] = test system: 786-0
[36] = test system: NCI-H460
[37] = test system: EKVX
[38] = test system: MOLT-4
[39] = test system: RPMI-8226
[40] = test system: M14
[41] = test system: HOP-92
[42] = test system: MDA-N
[43] = test system: HCT-15
[44] = test system: ACHN
[45] = test system: UACC-257
[46] = test system: HOP-62
[47] = test system: SK-MEL-2
[48] = test system: CCRF-CEM
[49] = test system: NCI-H23
[50] = test system: SNB-19
[51] = test system: T47D
[52] = test system: SF-539
[53] = test system: SF-295
[54] = test system: SR
[55] = test system: SK-MEL-5
[56] = test system: NCI-H226
[57] = test system: NCI-H522
[58] = test system: LOX IMVI
[59] = test system: Malme-3M

CCC1(O)C=CC(=O)C=C1
GI50 [1]: 23.9 µM (inactive) | GI50 [2]: 18.1 µM (inactive) | GI50 [3]: 17.2 µM (inactive) | GI50 [4]: 29 µM (inactive) | GI50 [5]: 35 µM (inactive) | GI50 [6]: 21.1 µM (inactive) | GI50 [7]: 39.5 µM (inactive) | GI50 [8]: 23.3 µM (inactive) | GI50 [9]: 24 µM (inactive) | GI50 [10]: 40.8 µM (inactive) | GI50 [11]: 31.6 µM (inactive) | GI50 [12]: 17.2 µM (inactive) | GI50 [13]: 15.3 µM (inactive) | GI50 [14]: 31.4 µM (inactive) | GI50 [15]: 66.5 µM (inactive) | GI50 [16]: 27.5 µM (inactive) | GI50 [17]: 24.5 µM (inactive) | GI50 [18]: 17.2 µM (inactive) | GI50 [19]: 36.7 µM (inactive) | GI50 [20]: 36.1 µM (inactive) | GI50 [21]: 42.4 µM (inactive) | GI50 [22]: 31.8 µM (inactive) | GI50 [23]: 33.3 µM (inactive) | GI50 [24]: 38.5 µM (inactive) | GI50 [25]: 33.1 µM (inactive) | GI50 [26]: 20.7 µM (inactive) | GI50 [27]: 15 µM (inactive) | GI50 [28]: 23.1 µM (inactive) | GI50 [29]: 43.5 µM (inactive) | GI50 [30]: 18.4 µM (inactive) | GI50 [31]: 20.9 µM (inactive) | GI50 [32]: 24 µM (inactive) | GI50 [33]: 26.7 µM (inactive) | GI50 [34]: 32.9 µM (inactive) | GI50 [35]: 18.4 µM (inactive) | GI50 [36]: 23.4 µM (inactive) | GI50 [37]: 55.1 µM (inactive) | GI50 [38]: 47.3 µM (inactive) | GI50 [39]: 32.4 µM (inactive) | GI50 [40]: 17.5 µM (inactive) | GI50 [41]: 31.8 µM (inactive) | GI50 [42]: 28.8 µM (inactive) | GI50 [43]: 17.9 µM | GI50 [44]: 20.6 µM (inactive) | GI50 [45]: 18.8 µM (inactive) | GI50 [46]: 27.7 µM (inactive) | GI50 [47]: 31.1 µM (inactive) | GI50 [48]: 60.7 µM (inactive) | GI50 [49]: 24.9 µM (inactive) | GI50 [50]: 18.1 µM (inactive) | GI50 [51]: 22.7 µM (inactive) | GI50 [52]: 0.0422 µM (active) | GI50 [53]: 33.9 µM (inactive) | GI50 [54]: 36.8 µM (inactive) | GI50 [55]: 31.8 µM (inactive) | GI50 [56]: 25.5 µM (inactive) | GI50 [57]: 10.3 µM (inactive) | GI50 [58]: 11.6 µM (inactive) | GI50 [59]: 8.77 µM (inactive)

OCc1ccn2c1[C@@H](O)CC2
GI50 [1]: > 100 µM (inactive) | GI50 [3]: > 100 µM (inactive) | GI50 [4]: > 100 µM (inactive) | GI50 [5]: > 100 µM (inactive) | GI50 [6]: > 100 µM (inactive) | GI50 [7]: > 100 µM (inactive) | GI50 [8]: > 100 µM (inactive) | GI50 [9]: > 100 µM (inactive) | GI50 [10]: > 100 µM (inactive) | GI50 [11]: > 100 µM (inactive) | GI50 [12]: > 100 µM (inactive) | GI50 [13]: > 100 µM (inactive) | GI50 [14]: > 100 µM (inactive) | GI50 [15]: > 100 µM (inactive) | GI50 [16]: > 100 µM (inactive) | GI50 [17]: > 100 µM (inactive) | GI50 [18]: > 100 µM (inactive) | GI50 [19]: > 100 µM (inactive) | GI50 [20]: > 100 µM (inactive) | GI50 [21]: > 100 µM (inactive) | GI50 [22]: > 100 µM (inactive) | GI50 [23]: > 100 µM (inactive) | GI50 [24]: > 100 µM (inactive) | GI50 [25]: > 100 µM (inactive) | GI50 [26]: > 100 µM (inactive) | GI50 [27]: > 100 µM (inactive) | GI50 [28]: > 100 µM (inactive) | GI50 [29]: > 100 µM (inactive) | GI50 [30]: > 100 µM (inactive) | GI50 [31]: > 100 µM (inactive) | GI50 [32]: > 100 µM (inactive) | GI50 [33]: > 100 µM (inactive) | GI50 [34]: > 100 µM (inactive) | GI50 [35]: > 100 µM (inactive) | GI50 [36]: > 100 µM (inactive) | GI50 [37]: > 100 µM (inactive) | GI50 [38]: > 100 µM (inactive) | GI50 [39]: > 100 µM (inactive) | GI50 [40]: > 100 µM (inactive) | GI50 [41]: > 100 µM (inactive) | GI50 [42]: > 100 µM (inactive) | GI50 [43]: > 100 µM | GI50 [44]: > 100 µM (inactive) | GI50 [45]: > 100 µM (inactive) | GI50 [46]: > 100 µM (inactive) | GI50 [47]: > 100 µM (inactive) | GI50 [48]: > 100 µM (inactive) | GI50 [49]: > 100 µM (inactive) | GI50 [50]: > 100 µM (inactive) | GI50 [51]: > 100 µM (inactive) | GI50 [52]: > 100 µM (inactive) | GI50 [53]: > 100 µM (inactive) | GI50 [54]: > 100 µM (inactive) | GI50 [55]: > 100 µM (inactive) | GI50 [56]: > 100 µM (inactive) | GI50 [57]: 1.55 µM (inactive) | GI50 [58]: > 100 µM (inactive) | GI50 [59]: > 100 µM (inactive)
